Assay [1] has as its target T1, human vasopressin V1b receptor (Homo sapiens, UniProt P47901).
T1 sequence (P47901 1-424): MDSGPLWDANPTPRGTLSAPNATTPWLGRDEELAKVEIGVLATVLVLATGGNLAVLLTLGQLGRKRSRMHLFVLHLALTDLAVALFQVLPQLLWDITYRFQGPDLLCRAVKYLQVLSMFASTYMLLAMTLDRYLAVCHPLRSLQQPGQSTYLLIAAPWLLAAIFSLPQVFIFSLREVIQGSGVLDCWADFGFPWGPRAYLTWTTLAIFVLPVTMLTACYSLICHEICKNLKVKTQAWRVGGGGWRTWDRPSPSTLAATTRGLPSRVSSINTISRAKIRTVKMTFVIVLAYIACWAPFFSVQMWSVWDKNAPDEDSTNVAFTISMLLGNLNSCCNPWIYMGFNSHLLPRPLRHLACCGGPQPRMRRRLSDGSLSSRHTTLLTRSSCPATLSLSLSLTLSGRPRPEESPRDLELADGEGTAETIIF
As to conditions: read-out: Ki(h-V1b)*, CHO-K1 cell membranes, displacement of 3H-AVP.

Assay [2] addresses human vasopressin V1a receptor (Homo sapiens, UniProt P37288). Kind of assay: Vasopressin V1a receptor binding assay. As to conditions: selectivity for human V1b over human V1a, quotient of binding constants.
Assay [3] concerns the target T1, human vasopressin V1b receptor. Nature of the assay: biochemical. As to conditions: Ki(h-V1b)* [nM], CHO-K1 cell membranes, displacement of 3H-AVP. For orientation: Displacement assays read how much labelled ligand stays bound in the presence of the test substance.

Consider five compounds from patent publication US9527856B2, “Oxindole compounds carrying a CO-bound spiro substituent and use thereof for treating vasopressin-related diseases” (AbbVie Deutschland GmbH & Co. KG, priority 2014, dated 2016).

Molecules are shown by their SMILES. Like-named read-outs stand apart in the source and are kept apart here.

human vasopressin V1a receptor, sequence (P37288 whole entry): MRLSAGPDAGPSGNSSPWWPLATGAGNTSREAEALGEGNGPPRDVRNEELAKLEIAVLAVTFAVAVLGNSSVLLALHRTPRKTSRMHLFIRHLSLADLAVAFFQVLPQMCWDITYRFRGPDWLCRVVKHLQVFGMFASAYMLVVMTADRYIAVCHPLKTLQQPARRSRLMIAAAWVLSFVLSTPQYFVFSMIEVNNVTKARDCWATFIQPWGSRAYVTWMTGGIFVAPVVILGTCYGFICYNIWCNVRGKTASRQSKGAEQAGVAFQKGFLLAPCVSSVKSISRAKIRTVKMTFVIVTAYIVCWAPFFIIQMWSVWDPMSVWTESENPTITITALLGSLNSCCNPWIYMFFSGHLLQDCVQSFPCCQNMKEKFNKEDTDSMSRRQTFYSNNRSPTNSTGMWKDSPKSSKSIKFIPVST

Turning to `CCOc1ncccc1[C@]1(NC(=O)N2CC3(CN(CCN4CCOCC4)C3)C2)C(=O)N(S(=O)(=O)c2ccc(F)cc2OC)c2ccc(C#N)cc21` [Example 3, N-[(3S)-5-Cyano-3-(2-ethoxy-3-pyridyl)-1-(4-fluoro-2-methoxy-phenyl)sulfonyl-2-oxo-indolin-3-yl]-2-(2-morpholinoethyl)-2,6-diazaspiro[3.3]heptane-6-carboxamide], the inhibition constant Ki – broadly, the equilibrium dissociation constant of an inhibitor or competing ligand from its target – in assay [1] is 0.001 to 0.01 µM. In addition, the “Ki(h-V1a)/Ki(h-V1b)” value in assay [2] is on record as “+++ (>75)”.

As to `CCOc1ncccc1[C@]1(NC(=O)C2CC3(C2)CN(C2CN(C)C2)C3)C(=O)N(S(=O)(=O)c2ccc(OC)cc2)c2ccc(C#N)cc21` [Example 46, N-[(3S)-5-Cyano-3-(2-ethoxy-3-pyridyl)-1-(4-methoxyphenyl)sulfonyl-2-oxo-indolin-3-yl]-6-(1-methylazetidin-3-yl)-6-azaspiro[3.3]heptane-2-carboxamide], the Ki in assay [3] was in the range of 1 to 10 nM. In assay [2], the “Ki(h-V1a)/Ki(h-V1b)” value is given as “+ (10-<25)”.

Compound `CCOc1ncccc1C1(NC(=O)N2CC3(CNC3)C2)C(=O)N(S(=O)(=O)c2ccc(OC)cc2OC)c2ccc(C#N)cc21.O=C(O)C(F)(F)F` (stereo not shown) [Example 58, N-(5-Cyano-1-(2,4-dimethoxyphenylsulfonyl)-3-(2-ethoxypyridin-3-yl)-2-oxoindolin-3-yl)-2,6-diazaspiro[3.3]heptane-2-carboxamide 2,2,2-trifluoroacetate] had a Ki in assay [3] of 10 to 100 nM. Moreover, the “Ki(h-V1a)/Ki(h-V1b)” value in assay [2] is listed as “++ (25-75)”.

In the case of `CCOc1ncccc1C1(NC(=O)N2CC3(C2)CN(C2CCNCC2)C3)C(=O)N(S(=O)(=O)c2ccc(OC)cc2OC)c2ccc(C#N)cc21.O=C(O)C(F)(F)F` (stereo not shown) [Example 59, N-(5-Cyano-1-(2,4-dimethoxyphenylsulfonyl)-3-(2-ethoxypyridin-3-yl)-2-oxoindolin-3-yl)-6-(piperidin-4-yl)-2,6-diazaspiro[3.3]heptane-2-carboxamide 2,2,2-trifluoroacetate], the Ki in assay [3] was in the range of 10 to 100 nM. The “Ki(h-V1a)/Ki(h-V1b)” value in assay [2] is reported as “+++ (>75)”.

On to `CCOc1ncccc1C1(NC(=O)N2CC3(CCNCC3)C2)C(=O)N(S(=O)(=O)c2ccc(OC)cc2OC)c2ccc(C#N)cc21.O=C(O)C(F)(F)F` (stereo not shown) [Example 60, N-(5-Cyano-1-(2,4-dimethoxyphenylsulfonyl)-3-(2-ethoxypyridin-3-yl)-2-oxoindolin-3-yl)-2,7-diazaspiro[3.5]nonane-2-carboxamide 2,2,2-trifluoroacetate], for which the Ki in assay [3] is 1 to 10 nM. The “Ki(h-V1a)/Ki(h-V1b)” value in assay [2] is “++ (25-75)”.
